Source: patent US20160374975A1, “COMPOSITION FOR TREATMENT OF NAFLD” (Pronova BioPharma Norge AS, priority 2015, published 2016)

Legend:
[1] = test system: HepG2 cells; assay: Intracellular lipid accumulation in steatic HepG2 cells (in vitro model of NAFLD), oil red O staining, OD 490 nm; type: cell-based, human; conditions: steatic HepG2 cells treated with EPA/DHA, PCB 153 final concentration 50 μM, 24 hours at 37° C., versus DMSO alone
Protocol: Palmitic (C16:0) and oleic (C18:1) acids are the most abundant fatty acids in liver triglycerides in both normal subjects and patients with NAFLD. The human hepatocyte-derived cell line HepG2 cells were seeded in a 96 well plate at a density of 5000 cells/well on Day 1. […] Intracellular accumulation of lipids was detected and quantified by oil red O staining using spectrophotometry at wavelength 490 nm. Oil red O color intracellular lipids droplets after cell fixation with paraformaldehyde. Absence of cell death was confirmed using a colometric lactate dehydrogenase (LDH) assay. Lactate dehydrogenase (LDH) is a cytosolic enzyme present in many different types of cells. When the plasma membrane is damaged, LDH is released into cell culture media. The released LDH was quantified by a coupled enzymatic reaction using a LDH cytotoxicity kit, and following the procedure according to the manufacture's instruction.
To assess the effect of n-3 PUFA on experimental NAFLD, the HepG2cells were treated with EPA and DHA at a concentration of 100 μM (1:1), or with fatty acids-free bovine serum albumin (BSA), as a control, together with 1 mM Oleic/Palmitic acid for 24 hours. […] Intracellular accumulation of lipids was detected and quantified by oil red O staining using spectrophotometry at wavelength 490 nm. […]

[2] = test system: mice; conditions: HFD+PCB 153 treated mice compared with HFD treatment alone; cited from earlier work
[3] = test system: male C57BL6/J mice; conditions: PCB 153 exposure in high-fat-fed mice; not seen with HFD alone or PCB 153 alone; cited from earlier work

## Clc1cc(Cl)c(-c2cc(Cl)c(Cl)cc2Cl)cc1Cl [PCB 153, polychlorinated biphenyl 153]
[1]
  Effect on the benefit of n-3 PUFA (EPA/DHA) on development of steatosis (intracellular lipids, oil red O): diminish the beneficial effect
[2]
  Reduction of hepatic glutathione: 6 fold
[3]
  Visceral adiposity, hepatic steatosis, and plasma adipokines: increased
